In PubChem BioAssay AID330 (DTP/NCI, 2004):
Where “and” joins values, the source holds several entries; their conditions need not be identical. Identical values can stand only once. Inconclusive results and toxic doses are left out.

Tested on: P388 leukemia ip, CD2F1 mice, survival T/C
Assay: NCI In Vivo Anticancer Drug Screen. Data for tumor model P388 Leukemia (intraperitoneal) in CD2F1 (CDF1) mice
Conditions: endpoint: median survival time, higher = longer survival
Summary of the method: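 Mice carrying the transplanted tumor received test compound or vehicle. Survival was recorded in each group, and the value is the treated-group measurement divided by that of the vehicle-treated control group.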

[1] = dose: 100.0 mg/kg/injection, schedule: Q01DX009 (ip), vehicle: saline with Tween-80
[2] = dose: 100.0 mg/kg/injection, schedule: Q04DX003 (ip), vehicle: saline with Tween-80
[3] = dose: 200.0 mg/kg/injection, schedule: Q01DX009 (ip), vehicle: saline with Tween-80
[4] = dose: 200.0 mg/kg/injection, schedule: Q04DX003 (ip), vehicle: saline with Tween-80
[5] = dose: 400.0 mg/kg/injection, schedule: Q04DX003 (ip), vehicle: saline with Tween-80
[6] = dose: 50.0 mg/kg/injection, schedule: Q01DX009 (ip), vehicle: saline with Tween-80
[7] = dose: 50.0 mg/kg/injection, schedule: Q01DX005 (ip), vehicle: saline with Tween-80
[8] = dose: 100.0 mg/kg/injection, schedule: Q01DX005 (ip), vehicle: saline with Tween-80
[9] = dose: 200.0 mg/kg/injection, schedule: Q01DX005 (ip), vehicle: saline with Tween-80
[10] = dose: 6.25 mg/kg/injection, schedule: Q01DX005 (ip), vehicle: saline with Tween-80
[11] = dose: 12.5 mg/kg/injection, schedule: Q01DX005 (ip), vehicle: saline with Tween-80
[12] = dose: 50.0 mg/kg/injection, schedule: Q01DX009 (ip), vehicle: Klucel (hydroxypropylcellulose) (HPC)
[13] = dose: 100.0 mg/kg/injection, schedule: Q01DX009 (ip), vehicle: Klucel (hydroxypropylcellulose) (HPC)
[14] = dose: 3.12 mg/kg/injection, schedule: Q01DX009 (ip), vehicle: Klucel (hydroxypropylcellulose) (HPC)
[15] = dose: 12.5 mg/kg/injection, schedule: Q01DX009 (ip), vehicle: Klucel (hydroxypropylcellulose) (HPC)

CCCSC(SCCC)C1OC(c2ccccc2)OC2COC(c3ccccc3)OC21 (stereo not drawn)
T/C (dose: 50.0 mg/kg/injection, schedule: Q01DX005 (ip), vehicle: Klucel + Tween-80): 90 % of control | T/C (dose: 100.0 mg/kg/injection, schedule: Q01DX005 (ip), vehicle: Klucel + Tween-80): 87 % of control | T/C (dose: 200.0 mg/kg/injection, schedule: Q01DX005 (ip), vehicle: Klucel + Tween-80): 87 % of control

CCCCCCCCCCCCCCCCCCCCCC(O)(CC)CC
T/C [1]: 100 % of control | T/C [2]: 100 % of control | T/C [3]: 109 % of control | T/C [4]: 100 % of control | T/C (dose: 400.0 mg/kg/injection, schedule: Q01DX009 (ip), vehicle: saline with Tween-80): 100 % of control | T/C [5]: 110 % of control

CC(C)(C)N=C(CCN1CCN(c2ccccc2)CC1)Nc1ccccc1Cl
T/C [6]: 109 % of control | T/C [1]: 108 % of control | T/C [3]: 100 % of control

COc1ccc(C(Cc2cc(OC)c(OC)cc2Br)NC=O)cc1OC (stereo not drawn)
T/C [7]: 89 % of control | T/C [8]: 90 % of control | T/C [9]: 91 % of control

O=C1c2ccccc2C(=O)N1Cc1cccc(I)c1
T/C (dose: 60.0 mg/kg/injection, schedule: Q01DX005 (ip), vehicle: Klucel (hydroxypropylcellulose) (HPC)): 97 % of control | T/C (dose: 120.0 mg/kg/injection, schedule: Q01DX005 (ip), vehicle: Klucel (hydroxypropylcellulose) (HPC)): 94 % of control

NCCCSc1ccccc1
T/C (dose: 60.0 mg/kg/injection, schedule: Q01DX005 (ip), vehicle: saline): 99 % of control | T/C (dose: 120.0 mg/kg/injection, schedule: Q01DX005 (ip), vehicle: saline): 97 % of control

CC(C)C(C(=O)CCN(C)C)c1ccc(Cl)cc1 (stereo not drawn)
T/C [7]: 116 % of control | T/C [8]: 100 % of control

CSC(=S)N/N=C\C(O)C(O)C(O)C(O)CO (stereo not drawn)
T/C (dose: 6.25 mg/kg/injection, schedule: Q04DX003 (ip), vehicle: saline): 104 % of control | T/C (dose: 12.5 mg/kg/injection, schedule: Q04DX003 (ip), vehicle: saline): 109 % of control | T/C (dose: 25.0 mg/kg/injection, schedule: Q04DX003 (ip), vehicle: saline): 102 % of control

C=C(C)C1Cc2c(ccc3c(=O)c4c(oc23)c(=O)oc2cc(OC)c(OC)cc24)O1 (stereo not drawn)
T/C [2]: 103 % of control | T/C [4]: 98 % of control | T/C [5]: 105 % of control

CCC(CC)C(=O)NN(C)C
T/C (dose: 50.0 mg/kg/injection, schedule: Q01DX005 (ip), vehicle: saline): 101 % of control | T/C (dose: 100.0 mg/kg/injection, schedule: Q01DX005 (ip), vehicle: saline): 100 % of control

COC1(c2ccc(C)cc2)OC12CCN(C)CC2 (stereo not drawn)
T/C [7]: 106 % of control | T/C [8]: 95 % of control | T/C [9]: 106 % of control

CC1(C)OC(=O)C=C[C@]2(C)[C@H]3CC[C@]4(C)C(=CCC4c4ccoc4)[C@]3(C)[C@H](O)C[C@@H]12 (stereo partly drawn)
T/C (dose: 11.25 mg/kg/injection, schedule: Q01DX005 (ip), vehicle: Klucel (hydroxypropylcellulose) (HPC)): 101 % of control | T/C (dose: 22.5 mg/kg/injection, schedule: Q01DX005 (ip), vehicle: Klucel (hydroxypropylcellulose) (HPC)): 98 % of control | T/C (dose: 45.0 mg/kg/injection, schedule: Q01DX005 (ip), vehicle: Klucel (hydroxypropylcellulose) (HPC)): 94 % of control | T/C (dose: 90.0 mg/kg/injection, schedule: Q01DX005 (ip), vehicle: Klucel (hydroxypropylcellulose) (HPC)): 98 % of control | T/C (dose: 180.0 mg/kg/injection, schedule: Q01DX005 (ip), vehicle: Klucel (hydroxypropylcellulose) (HPC)): 91 % of control

CCCCCCCCCCC(O)C(=O)O (stereo not drawn)
T/C [6]: 95 % of control | T/C [1]: 89 % of control

Cc1ccc2[nH]c3nc4cc(C)c(C)cc4nc3c2c1
T/C [10]: 93 % of control | T/C [11]: 93 % of control | T/C (dose: 25.0 mg/kg/injection, schedule: Q01DX005 (ip), vehicle: saline with Tween-80): 87 % of control | T/C [7]: 96 % of control | T/C [8]: 105 % of control | T/C [9]: 108 % of control

CC(C)(C)OC(=O)N1CCc2c([nH]oc2=O)C1
T/C (dose: 50.0 mg/kg/injection, schedule: Q01DX009 (ip), vehicle: suspension in saline): 92 % of control | T/C (dose: 100.0 mg/kg/injection, schedule: Q01DX009 (ip), vehicle: suspension in saline): 90 % of control | T/C (dose: 200.0 mg/kg/injection, schedule: Q01DX009 (ip), vehicle: suspension in saline): 90 % of control

CC(N1CCS(=O)(=O)CC1)P(=O)(O)O (stereo not drawn)
T/C [7]: 90 % of control | T/C [8]: 99 % of control | T/C [9]: 100 % of control

O=S(=O)(c1ccc(NC(=S)NCc2ccco2)cc1)N1CCCCC1
T/C [12]: 88 % of control | T/C [13]: 93 % of control | T/C (dose: 200.0 mg/kg/injection, schedule: Q01DX009 (ip), vehicle: Klucel (hydroxypropylcellulose) (HPC)): 92 % of control

CC1(C)CC(O)CC2(C)OC(=O)C=C12 (stereo not drawn)
T/C (dose: 2.5 mg/kg/injection, schedule: Q01DX009 (ip), vehicle: DMSO): 101 % of control | T/C (dose: 5.0 mg/kg/injection, schedule: Q01DX009 (ip), vehicle: DMSO): 103 % of control | T/C (dose: 10.0 mg/kg/injection, schedule: Q01DX009 (ip), vehicle: DMSO): 91 % of control

O=[N+]([O-])c1cc(S(=O)(=O)c2ccc(F)c([N+](=O)[O-])c2)ccc1F
T/C [14]: 102 % of control | T/C (dose: 6.25 mg/kg/injection, schedule: Q01DX009 (ip), vehicle: Klucel (hydroxypropylcellulose) (HPC)): 108 % of control | T/C [15]: 114 % of control | T/C (dose: 25.0 mg/kg/injection, schedule: Q01DX009 (ip), vehicle: Klucel (hydroxypropylcellulose) (HPC)): 108 % of control

CN1CCN(c2ccncc2S(=O)(=O)N2CCCC2)CC1
T/C (dose: 50.0 mg/kg/injection, schedule: Q01DX009 (ip), vehicle: saline): 107 % of control | T/C (dose: 100.0 mg/kg/injection, schedule: Q01DX009 (ip), vehicle: saline): 104 % of control

CCC[CH2][Sn]([CH2]CCC)([O]C(=O)CCC(C)=O)[O]C(=O)CCC(C)=O
T/C [14]: 118 % of control and 119 % of control | T/C [15]: 163 % of control

COc1ccc(NC(N)=S)cc1OC
T/C (dose: 50.0 mg/kg/injection, schedule: Q04DX003 (ip), vehicle: saline with Tween-80): 95 % of control | T/C [2]: 88 % of control | T/C [4]: 88 % of control

CCCCCCCCCCCCOC(=O)OCCCCCCCCCCCC
T/C [2]: 100 % of control | T/C [4]: 100 % of control | T/C [5]: 100 % of control

C=CC(COC(=O)C(C)(C)OC(C)=O)c1ccc(OC(=O)C(C)C)c(OC)c1 (stereo not drawn)
T/C [15]: 94 % of control | T/C [12]: 100 % of control | T/C [13]: 102 % of control

Nc1[nH]c(=S)nc2nc[nH]c12
T/C [10]: 103 % of control | T/C [11]: 100 % of control

O=C1C(c2ccccc2)=S=C2C=Cc3ccccc3N12
T/C (dose: 100.0 mg/kg/injection, schedule: Q01DX001 (ip), vehicle: saline with Tween-80): 109 % of control | T/C (dose: 200.0 mg/kg/injection, schedule: Q01DX001 (ip), vehicle: saline with Tween-80): 111 % of control | T/C (dose: 400.0 mg/kg/injection, schedule: Q01DX001 (ip), vehicle: saline with Tween-80): 116 % of control

Cc1cc(NN=O)nc(C)n1
T/C (dose: 3.12 mg/kg/injection, schedule: Q01DX009 (ip), vehicle: water): 98 % of control | T/C (dose: 6.25 mg/kg/injection, schedule: Q01DX009 (ip), vehicle: water): 98 % of control | T/C (dose: 12.5 mg/kg/injection, schedule: Q01DX009 (ip), vehicle: water): 98 % of control | T/C (dose: 25.0 mg/kg/injection, schedule: Q01DX009 (ip), vehicle: water): 100 % of control and 101 % of control | T/C (dose: 50.0 mg/kg/injection, schedule: Q01DX009 (ip), vehicle: water): 104 % of control and 106 % of control | T/C (dose: 200.0 mg/kg/injection, schedule: Q01DX009 (ip), vehicle: water): 166 % of control

O=c1[nH]cnc2n[nH]nc12
T/C (dose: 12.5 mg/kg/injection, schedule: Q01DX009 (ip), vehicle: saline with Tween-80): 107 % of control | T/C (dose: 25.0 mg/kg/injection, schedule: Q01DX009 (ip), vehicle: saline with Tween-80): 100 % of control | T/C [6]: 117 % of control | T/C [1]: 109 % of control | T/C [3]: 121 % of control

CCOC(=O)C1C(=O)N2C(=O)C(NC(C)=O)=C(O)C2C1c1ccc(C)cc1 (stereo not drawn)
T/C (dose: 100.0 mg/kg/injection, schedule: Q04DX002 (ip), vehicle: saline with Tween-80): 100 % of control | T/C (dose: 200.0 mg/kg/injection, schedule: Q04DX002 (ip), vehicle: saline with Tween-80): 100 % of control | T/C (dose: 400.0 mg/kg/injection, schedule: Q04DX002 (ip), vehicle: saline with Tween-80): 104 % of control
